Results reported in ChEMBL document CHEMBL5380869, “Discovery of an Oral, Beyond-Rule-of-Five Mcl-1 Protein-Protein Interaction Modulator with the Potential of Treating Hematological Malignancies” (J Med Chem, 2023).
Values after ≈ are worked out from the molar mass of the structure shown. Active and inactive are the calls of the source. The rule behind the calls is not given here.

Key:
[1] = Thermodynamic (equilibrium) solubility of the compound measured after 3 days agitation in pH 7 buffer by LC-MS/MS analysis; format: physicochemical; conditions: time 3 day, read-out: Therm_solubility
[2] = Half life in CD1 mouse at 1 mg/kg, iv administered as bolus dose; format: ADME, organism-based; conditions: in vivo
[3] = Oral bioavailability in CD1 mouse at 5 mg/kg administered as bolus dose; format: ADME, organism-based; conditions: in vivo
[4] = Fraction unbound in mouse plasma at 5 uM incubated for 4.5 hrs by rapid equilibrium dialysis; format: ADME, cell-free
[5] = target: T1, CYP3A4 (Homo sapiens, UniProt P08684); experiment: Induction of human CYP3A4 assessed as fold change at 1 uM by CYP450 induction assay; format: ADME; conditions: read-out: FC
[6] = AUClast in CD1 mouse at 5 mg/kg, po administered as bolus dose; format: ADME, organism-based; parameters: dose 5 mg/kg, route po; conditions: in vivo
[7] = test system: MOLP-8; experiment: Induction apoptosis in human MOLP8 cells assessed as cell killing measured after 2 hrs by Caspase-Glo 3/7 Assay; format: functional, cell-based; conditions: MOLP-8, 2 h
[8] = Hepatic intrinsic clearance in Swiss CD-1 mouse hepatocytes measured per 10^6 cells at 1 uM measured upto 120 mins by LC-MS/MS analysis; format: ADME, cell-based, Hepatocyte; conditions: read-out: CLH
[9] = Toxicity in NSG mouse xenografted with human MOLM-13 cells at 10 mg/kg, po; format: organism-based; conditions: in vivo
[10] = target: T2, Cytochrome P450 2C8 (Homo sapiens, UniProt P10632); experiment: Inhibition of human CYP2C8 assessed as fluorescent metabolites by CYP450 inhibition assay; format: ADME
T2 sequence (P10632 whole entry): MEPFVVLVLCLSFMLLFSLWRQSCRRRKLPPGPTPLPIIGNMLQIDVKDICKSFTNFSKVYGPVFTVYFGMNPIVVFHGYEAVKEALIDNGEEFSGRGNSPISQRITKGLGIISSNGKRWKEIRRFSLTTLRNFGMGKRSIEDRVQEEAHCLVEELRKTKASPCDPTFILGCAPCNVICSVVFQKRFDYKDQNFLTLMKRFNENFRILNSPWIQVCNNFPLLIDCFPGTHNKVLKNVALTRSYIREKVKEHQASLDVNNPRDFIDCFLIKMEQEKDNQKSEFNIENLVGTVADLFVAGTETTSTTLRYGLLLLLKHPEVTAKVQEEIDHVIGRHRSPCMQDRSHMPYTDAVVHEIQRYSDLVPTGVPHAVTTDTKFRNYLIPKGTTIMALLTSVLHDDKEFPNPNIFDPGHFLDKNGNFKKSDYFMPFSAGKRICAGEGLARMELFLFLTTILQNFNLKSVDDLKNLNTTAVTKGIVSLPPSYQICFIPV

[11] = target: Cytochrome P450 2C9 (Homo sapiens, UniProt P11712); experiment: Inhibition of human CYP2C9 assessed as fluorescent metabolites by CYP450 inhibition assay; format: ADME
[12] = target: Cytochrome P450 2C19 (Homo sapiens, UniProt P33261); experiment: Inhibition of human CYP2C19 assessed as fluorescent metabolites by CYP450 inhibition assay; format: ADME
[13] = target: T3, Cytochrome P450 1A2 (Homo sapiens, UniProt P05177); experiment: Inhibition of human CYP1A2 assessed as fluorescent metabolites by CYP450 inhibition assay; format: ADME
T3 sequence (P05177 whole entry): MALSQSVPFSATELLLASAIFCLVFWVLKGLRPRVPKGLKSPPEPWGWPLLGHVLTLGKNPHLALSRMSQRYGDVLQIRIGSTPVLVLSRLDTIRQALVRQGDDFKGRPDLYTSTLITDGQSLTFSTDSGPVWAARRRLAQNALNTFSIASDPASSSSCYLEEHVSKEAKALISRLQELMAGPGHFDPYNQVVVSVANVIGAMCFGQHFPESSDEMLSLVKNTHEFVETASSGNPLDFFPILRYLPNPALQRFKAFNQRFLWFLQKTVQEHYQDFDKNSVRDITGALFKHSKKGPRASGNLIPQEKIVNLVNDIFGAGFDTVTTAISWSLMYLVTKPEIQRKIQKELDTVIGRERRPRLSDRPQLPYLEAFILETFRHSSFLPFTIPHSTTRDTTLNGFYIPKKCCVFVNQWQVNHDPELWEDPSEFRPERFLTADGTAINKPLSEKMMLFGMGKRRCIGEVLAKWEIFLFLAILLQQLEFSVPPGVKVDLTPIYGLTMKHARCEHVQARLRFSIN

[14] = Intrinsic clearance in human liver microsomes measured upto 60 mins by LC-MS/MS analysis; format: ADME, Microsome; conditions: read-out: CLH
[15] = Thermodynamic (equilibrium) solubility of the compound measured after 3 days agitation in pH 2 buffer by LC-MS/MS analysis; format: physicochemical; conditions: time 3 day, read-out: Therm_solubility
[16] = target: T1, CYP3A4; experiment: Induction of human CYP3A4 assessed as fold change at 10 uM by CYP450 induction assay; format: ADME; conditions: read-out: FC
[17] = Hepatic intrinsic clearance in human hepatocytes measured per 10^6 cells at 1 uM measured upto 120 mins by LC-MS/MS analysis; format: ADME, cell-based, Hepatocyte; conditions: read-out: CLH
[18] = Cmax in CD1 mouse at 5 mg/kg, po administered as bolus dose; format: ADME, organism-based; parameters: dose 5 mg/kg, route po; conditions: in vivo
[19] = Intrinsic clearance in mouse liver microsomes measured upto 60 mins by LC-MS/MS analysis; format: ADME, Microsome; conditions: read-out: CLH
[20] = target: Cytochrome P450 2D6 (Homo sapiens, UniProt P10635); experiment: Inhibition of human CYP2D6 assessed as fluorescent metabolites by CYP450 inhibition assay; format: ADME
[21] = Cardiotoxicity risk in human iPSC-CM assessed as calcium transients at 3 uM by CTCM assay; format: toxicity, cell-based
[22] = Metabolic stability in Swiss CD-1 mouse hepatocytes assessed as half life at 1 uM measured by LC-MS/MS analysis; format: ADME, cell-based, Hepatocyte
[23] = Cardiotoxicity risk in human iPSC-CM assessed as calcium transients at 1 uM by CTCM assay; format: toxicity, cell-based
[24] = test system: MOLM-13; experiment: In vivo inhibition of Mcl-1 in human MOLM-13 cells sc implanted in NSG mouse assessed as disruption of Mcl-1/Bim complex in tumor at 10 mg/kg, po; format: functional, organism-based
[25] = test system: MOLM-13; experiment: In vivo inhibition of Mcl-1 in human MOLM-13 cells sc implanted in NSG mouse assessed as disruption of Mcl-1/Bak complex in tumor at 10 mg/kg, po; format: functional, organism-based
[26] = target: T4, CYP1A2 (Homo sapiens, UniProt P05177); experiment: Induction of human CYP1A2 assessed as fold change at 1 uM by CYP450 induction assay; format: ADME; conditions: read-out: FC
T4 sequence (P05177 whole entry): T3 sequence (P05177 whole entry)

[27] = Clearance in CD1 mouse at 1 mg/kg, iv administered as bolus dose; format: ADME, organism-based; conditions: in vivo
[28] = Fraction absorbed in CD1 mouse at 5 mg/kg, po administered as bolus dose; format: ADME, organism-based; conditions: in vivo, read-out: Fabs
[29] = Inhibition of terbium-labelled Mcl-1 (unknown origin)/Bim BH3 peptide (H3N-(C/Cy5Mal)-WIAQELRRIGDEFN-OH) (unknown origin) interaction assessed as displacement of Cy5-labeled Bim BH3 peptide by TR-HTRF assay
[30] = Cardiotoxicity risk in human iPSC-CM assessed as calcium transients at 0.3 uM by CTCM assay; format: toxicity, cell-based
[31] = Tmax in CD1 mouse at 5 mg/kg, po administered as bolus dose; format: ADME, organism-based; conditions: in vivo
[32] = Cardiotoxicity risk in human iPSC-CM assessed as calcium transients at 0.1 uM by CTCM assay; format: toxicity, cell-based
[33] = Metabolic stability in human hepatocytes assessed as half life at 1 uM measured by LC-MS/MS analysis; format: ADME, cell-based, Hepatocyte
[34] = Fraction unbound in human plasma at 5 uM incubated for 4.5 hrs by rapid equilibrium dialysis; format: ADME, cell-free
[35] = Lipophilicity, CHI logD of compound at pH 7.4 by UPLC-TOF analysis; format: physicochemical; conditions: buffer
[36] = Initial plasma concentration in CD1 mouse at 1 mg/kg, iv administered as bolus dose; format: ADME, organism-based
[37] = Volume of distribution at steady state in CD1 mouse at 1 mg/kg, iv administered as bolus dose; format: ADME, organism-based; conditions: in vivo, read-out: Vdss

T1 sequence (P08684 whole entry): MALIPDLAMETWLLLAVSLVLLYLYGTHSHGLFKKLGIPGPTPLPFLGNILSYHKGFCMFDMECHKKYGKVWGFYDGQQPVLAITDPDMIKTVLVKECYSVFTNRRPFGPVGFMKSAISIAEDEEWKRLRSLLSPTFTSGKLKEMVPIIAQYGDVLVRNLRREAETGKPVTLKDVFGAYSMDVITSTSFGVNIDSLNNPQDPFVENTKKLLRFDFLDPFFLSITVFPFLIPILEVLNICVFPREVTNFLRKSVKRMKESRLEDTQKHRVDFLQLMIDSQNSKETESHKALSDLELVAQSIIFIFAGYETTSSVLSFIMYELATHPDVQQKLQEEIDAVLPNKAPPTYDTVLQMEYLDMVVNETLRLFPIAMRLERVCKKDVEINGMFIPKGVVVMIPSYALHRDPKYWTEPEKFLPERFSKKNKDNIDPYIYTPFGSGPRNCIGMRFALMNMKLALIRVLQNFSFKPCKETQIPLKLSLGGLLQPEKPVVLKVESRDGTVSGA
Cytochrome P450 2C9, sequence (P11712 whole entry): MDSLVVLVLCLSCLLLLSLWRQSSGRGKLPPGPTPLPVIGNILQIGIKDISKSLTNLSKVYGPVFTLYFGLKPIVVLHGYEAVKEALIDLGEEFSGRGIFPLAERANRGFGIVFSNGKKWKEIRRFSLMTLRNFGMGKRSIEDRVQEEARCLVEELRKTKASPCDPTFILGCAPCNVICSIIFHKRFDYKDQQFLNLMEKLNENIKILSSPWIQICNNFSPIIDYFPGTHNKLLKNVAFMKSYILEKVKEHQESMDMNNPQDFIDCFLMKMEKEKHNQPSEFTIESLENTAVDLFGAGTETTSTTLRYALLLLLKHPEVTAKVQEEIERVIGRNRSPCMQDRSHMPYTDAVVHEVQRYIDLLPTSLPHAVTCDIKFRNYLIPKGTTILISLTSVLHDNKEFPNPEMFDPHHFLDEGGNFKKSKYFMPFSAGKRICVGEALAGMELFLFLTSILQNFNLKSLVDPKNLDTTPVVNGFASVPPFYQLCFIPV
Cytochrome P450 2C19, sequence (P33261 whole entry): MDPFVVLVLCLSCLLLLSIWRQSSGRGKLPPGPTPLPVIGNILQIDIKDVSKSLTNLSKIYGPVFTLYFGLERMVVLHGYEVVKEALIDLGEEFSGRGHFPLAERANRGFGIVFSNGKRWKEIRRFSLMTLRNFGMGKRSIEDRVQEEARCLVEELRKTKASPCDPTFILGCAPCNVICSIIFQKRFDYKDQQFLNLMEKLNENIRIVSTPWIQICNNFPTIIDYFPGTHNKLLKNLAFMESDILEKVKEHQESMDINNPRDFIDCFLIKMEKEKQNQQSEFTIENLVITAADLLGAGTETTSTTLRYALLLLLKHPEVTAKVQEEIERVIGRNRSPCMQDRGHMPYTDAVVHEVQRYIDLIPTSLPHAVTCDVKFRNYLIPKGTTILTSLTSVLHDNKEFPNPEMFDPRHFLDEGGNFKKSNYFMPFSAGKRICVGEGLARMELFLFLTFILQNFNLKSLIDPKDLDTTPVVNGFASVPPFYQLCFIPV
Cytochrome P450 2D6, sequence (P10635 whole entry): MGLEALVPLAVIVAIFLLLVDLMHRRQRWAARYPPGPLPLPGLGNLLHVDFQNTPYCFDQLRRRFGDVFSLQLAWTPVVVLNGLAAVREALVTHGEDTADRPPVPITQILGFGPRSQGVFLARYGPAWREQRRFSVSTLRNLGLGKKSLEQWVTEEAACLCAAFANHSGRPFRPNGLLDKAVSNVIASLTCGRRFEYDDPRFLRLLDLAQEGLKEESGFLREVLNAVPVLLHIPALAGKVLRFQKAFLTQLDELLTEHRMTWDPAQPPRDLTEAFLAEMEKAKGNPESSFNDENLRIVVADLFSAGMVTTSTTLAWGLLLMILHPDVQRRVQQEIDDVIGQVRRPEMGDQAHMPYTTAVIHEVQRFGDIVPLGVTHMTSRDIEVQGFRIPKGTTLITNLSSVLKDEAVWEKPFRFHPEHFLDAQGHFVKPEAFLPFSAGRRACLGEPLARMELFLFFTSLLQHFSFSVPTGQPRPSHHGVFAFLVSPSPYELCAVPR

COc1nn(C)cc1C(=O)N[S@@]1(=O)=NC(=O)c2ccc3c(c2)N(C[C@@H]2CCO[C@H]2[C@@H](OC)/C(F)=C/C[C@H](C)C1)C[C@@]1(CCCc2cc(Cl)ccc21)CO3
solubility thermodynamic at 72 h [1]: 520 µM (≈ 401 µg/mL)
half-life [2]: 1.81 h
bioavailability [3]: 78%
Fu [4]: 0.02%
fold induction at 1 µM [5]: 1.3
AUC(0-t) [6]: 2520 ng·h/mL
AC50 [7]: 44 nM
hepatocyte CLint at 1 µM [8]: < 1.24 µL/min/1e6 cells
Activity [9]: Non-Toxic
IC50 [10]: 5010 nM
inhibition (INH) [11]: Not Active
inhibition (INH) [12]: Not Active
inhibition (INH) [13]: Not Active
microsomal CLint [14]: < 7.7 µL/min/mg
solubility thermodynamic at 72 h [15]: < 0.1 µM
fold induction at 10 µM [16]: 4.4
hepatocyte CLint at 1 µM [17]: 1.99 µL/min/1e6 cells
Cmax [18]: 578 ng/mL
microsomal CLint [19]: 15 µL/min/mg
inhibition (INH) [20]: Not Active
Activity [21]: Non-Toxic
half-life at 1 µM [22]: > 9.33 h
Activity [23]: Non-Toxic
inhibition [24]: Active
inhibition [25]: Active
fold induction at 1 µM [26]: 0.95
clearance [27]: 25 mL/min/kg
Fa [28]: 99%
Ki [29]: 0.011 nM
Activity [30]: Non-Toxic
Tmax [31]: 2.33 h
Activity [32]: Non-Toxic
t1/2 [33]: 5.8 h
Fu [34]: 0.05%
chromatographic logD [35]: 3
C0 [36]: 574 ng/mL
Vd [37]: 3.01 L/kg
